Read-outs that look alike come from different tables or passages of the source.
What was measured:
[1] = target: T1, Src (p60^c-src) (Homo sapiens, UniProt P12931); assay: SRC-Inhibitor-Assay (homogenous time-resolved fluorescence kinase assay); format: biochemical
T1 construct: purchased Upstate (UBI)
Experimental: The activity of the compounds according to this invention as inhibitors for the src-family tyrosine kinases was shown by using the following assay.
SRC-Inhibitor-Assay Parameters:
whereby both peptides were synthesized by an optimized solid phase peptide synthesis protocol (Merrifield (1962) Fed. Proc. Fed. Amer. Soc Exp. Biol. 21, 412) on an Zinsser SMP350 peptide synthesizer. Shortly, the peptide was assembled on 160 mg (22.8 μmol scale) of a Rink-Linker modified polystyrene solid phase by repeatedly conjugating a twenty fold excess of aminoacids each protected by temporary piperidine labile Fmoc- and permanent acid labile tert-Bu-, BOC- and O-tert-Bu-groups depending on the side chain function. The substrate sequence AEEEIYGEFEAKKKK was N-terminal additionally mounted with the spacer amino acids Aminocaprylic acid and Glycin. After cleavage of the N-terminal temporary protecting group the still attached and protected peptide was labeled with a 1.5 fold amount of LightCycler-Red 640-N-hydroxy succinimide ester (purchased from Roche Diagnostics GmbH) and triethylamine. After 3 hrs. the resin was washed with dimethylformamide and isopropanol until the eluates of the blue resin got colourless. […] The substrate was finally isolated by a preparative reverse phase HPLC purification. The purification yielded 12.2 mg RP-HPLC single peak pure blue material (lyophilisate). The identity was proven by MALDI mass spectroscopy [2720.0]. • Enzymes: Upstate Lck (p56^lck, active), Upstate Src (p60^c-src, partially purified) were purchased from UBI. • Homogenous, time-resolved Fluorescence Assay: Reader: Perkin Elmer, Wallac Viktor 1420-040 multilabel counter; Liquid handling system: Beckman Coulter, Biomek 2000. • ATP, Tween 20, HEPES were purchased from Roche Molecular Biochemicals, MgCl2 and MnCl2 were purchased from Merck Eurolab, TCEP was purchased from Pierce, 384 Well low volume fluorescence plates was purchased from Falcon. Assay Description:
At first the enzyme is pre-incubated for 15 min. at 15° C. in aqueous solution with corresponding amounts of inhibitors according to this invention. Then the phosphorylation reaction is started by adding a reaction mixture, containing ATP, Peptide and PT66, and subsequent shaking. The proceeding of this reaction is immediately monitored using time resolved fluorescence spectroscopy in a suitable well plate reader.
The IC50-values can be obtained from the reaction rates by using a non-linear curve fit (Excelfit).

[2] = ATP 5 μM, enzyme 2.5 U/mL, pre-incubated 15 min at 15° C., read-out: IC50 (μM) - Enzyme Inhibition Assay, Src

T1 sequence (P12931 whole entry): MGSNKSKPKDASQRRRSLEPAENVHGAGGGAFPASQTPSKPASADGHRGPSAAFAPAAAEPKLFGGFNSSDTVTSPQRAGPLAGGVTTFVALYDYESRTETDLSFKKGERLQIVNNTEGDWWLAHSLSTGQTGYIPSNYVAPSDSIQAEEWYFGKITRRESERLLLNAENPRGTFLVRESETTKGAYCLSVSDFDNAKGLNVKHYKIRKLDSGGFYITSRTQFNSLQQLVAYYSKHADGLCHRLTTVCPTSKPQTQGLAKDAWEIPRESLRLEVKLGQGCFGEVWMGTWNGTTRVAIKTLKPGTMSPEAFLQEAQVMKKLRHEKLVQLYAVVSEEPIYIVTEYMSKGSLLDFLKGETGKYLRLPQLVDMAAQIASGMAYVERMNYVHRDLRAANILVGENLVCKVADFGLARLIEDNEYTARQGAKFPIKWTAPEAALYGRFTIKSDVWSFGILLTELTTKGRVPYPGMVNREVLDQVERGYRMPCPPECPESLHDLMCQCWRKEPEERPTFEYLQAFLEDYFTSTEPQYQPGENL

| SMILES | melting point | IC50 [1, 2] | IC50 ([1]; printed at the end of the Example 8 characterisation data, kinase not named at that place, read-out: IC50) |
| --- | --- | --- | --- |
| COc1ccc(N2C(=O)N(c3cccc(C#N)c3)c3nc(Nc4cccc(CCO)c4)ncc3C2C)cc1 (racemic) [Example 4, (±)-3-[7-[3-(2-hydroxy-ethyl)-phenylamino]-3-(4-methoxy-phenyl)-4-methyl-2-oxo-3,4-dihydro-2H-pyrimido[4,5-d]pyrimidin-1-yl]-benzonitrile] | 195 to 200 °C | < 1 µM |  |
| CCN(CC)CCc1cccc(Nc2ncc3c(n2)N(c2cccc(C#N)c2)C(=O)N(c2ccc(OC)cc2)C3C)c1 (racemic) [Example 5b, (±)-3-[7-[3-(2-diethylamino-ethyl)-phenylamino]-3-(4-methoxy-phenyl)-4-methyl-2-oxo-3,4-dihydro-2H-pyrimido[4,5-d]pyrimidin-1-yl]-benzonitrile] | 128 to 145 °C | < 1 µM |  |
| COc1ccc(N2C(=O)N(c3cccc(C#N)c3)c3nc(Nc4cccc(CCN(C)C)c4)ncc3C2C)cc1 (racemic) [Example 6, (±)-3-[7-[3-(2-dimethylamino-ethyl)-phenylamino]-3-(4-methoxy-phenyl)-4-methyl-2-oxo-3,4-dihydro-2H-pyrimido[4,5-d]pyrimidin-1-yl]-benzonitrile] | 120 to 135 °C | < 1 µM |  |
| COc1ccc(N2C(=O)N(c3cccc(C#N)c3)c3nc(Nc4cccc(CCN5CCN(C)CC5)c4)ncc3C2C)cc1 (racemic) [Example 7, (±)-3-(3-(4-methoxy-phenyl)-4-methyl-7-{3-[2-(4-methyl-piperazin-1-yl)-ethyl]-phenylamino}-2-oxo-3,4-dihydro-2H-pyrimido[4,5-d]pyrimidin-1-yl)-benzonitrile] | 134 to 155 °C | < 1 µM |  |
| CCN(CC)CCc1cccc(Nc2ncc3c(n2)N(c2cccc(C(N)=O)c2)C(=O)N(c2ccc(OC)cc2)C3C)c1 (racemic) [Example 8, (±)-3-[7-[3-(2-diethylamino-ethyl)-phenylamino]-3-(4-methoxy-phenyl)-4-methyl-2-oxo-3,4-dihydro-2H-pyrimido[4,5-d]pyrimidin-1-yl]-benzamide] | 170 to 175 °C | < 1 µM | 0.0045 µM |
| COc1ccc(N2C(=O)N(c3cccc(C(N)=O)c3)c3nc(Nc4cccc(CCN(C)C)c4)ncc3C2C)cc1 (racemic) [Example 9, (±)-3-[7-[3-(2-dimethylamino-ethyl)-phenylamino]-3-(4-methoxy-phenyl)-4-methyl-2-oxo-3,4-dihydro-2H-pyrimido[4,5-d]pyrimidin-1-yl]-benzamide] | 215 to 230 °C | < 1 µM |  |
| COc1ccc(N2C(=O)N(c3cccc(C(N)=O)c3)c3nc(Nc4cccc(CCN5CCN(C)CC5)c4)ncc3C2C)cc1 (racemic) [Example 10, (±)-3-(3-(4-methoxy-phenyl)-4-methyl-7-{3-[2-(4-methyl-piperazin-1-yl)-ethyl]-phenylamino}-2-oxo-3,4-dihydro-2H-pyrimido[4,5-d]pyrimidin-1-yl)-benzamide] | 243 to 251 °C | < 1 µM |  |
